Five compounds from patent publication US20260207573A1, “EFFECT OF RIVOCERANIB ON CYTOCHROME P450 ENZYME SUBSTRATES” (ELEVAR THERAPEUTICS, INC., priority 2022, published 2026) can be followed below.

The target in series [1] is CYP2C19 (Homo sapiens, UniProt P33261). To be noted: in vivo, po.
Series [2] relates to CYP3A. Briefly: Example 2 phase 1 drug-drug interaction study, rivoceranib 700 mg QD + 5+1 cocktail: midazolam probe. More on the design: AUC(0-t), Mean (CV %), 5 + 1 cocktail alone / AUC(0-t), Geometric LSM, 5 + 1 cocktail alone / AUC(0-t), Mean (CV %), Rivoceranib plus 5 + 1 cocktail / AUC(0-t), Geometric LSM, Rivoceranib plus 5 + 1 cocktail / AUC(0-∞), Mean (CV %), 5 + 1 cocktail alone / AUC(0-∞), Geometric LSM, 5 + 1 cocktail alone / AUC(0-∞), Mean (CV %), Rivoceranib plus 5 + 1 cocktail / AUC(0-∞), Geometric LSM, Rivoceranib plus 5 + 1 cocktail: unit not given beside the values. The conditions noted are these: for AUC(0-t) / AUC(0-inf) / Cmax: human, in vivo; for AUC(0-t), Geometrical mean Ratio, % (90% CI) / AUC(0-∞), Geometrical mean Ratio, % (90% CI) / Cmax, Geometrical mean Ratio, % (90% CI): rivoceranib 700 mg QD, 100*LSM Rivoceranib Plus 5+1 Cocktail/LSM 5+1 Cocktail Alone. As for the experimental part:
(§1) This example describes a pharmacokinetic interaction study in healthy human volunteers dosed with 700 mg rivoceranib and a mixture of cytochrome P450 enzyme (CYP1A2, CYP2C9, CYP2C19, CYP2D6, and CYP3A) substrates.
(§2) The primary objective of the study was to evaluate the effect of rivoceranib 700 mg once daily (QD) on the pharmacokinetics (PK) of various CYP substrates to determine drug-drug interactions of rivoceranib.
(§3) This was an open-label, 2-treatment, fixed-sequence drug-drug interaction phase 1 study designed to evaluated the impact of multiple oral doses of 700 mg rivoceranib on the single-dose PK of CYP enzyme substrates administered in a 5+1 Cooperstown probe cocktail (caffeine [CYP1A2], S- and R-warfarin [CYP2C9]+vitamin K, omeprazole [CYP2C19], dextromethorphan [CYP2D6], and midazolam [CYP3A]) in healthy volunteers (N=32). On day 1, volunteers received a single dose of the 5+1 cocktail comprising 200 mg caffeine, 10 mg S- and R-warfarin with 10 mg vitamin K, 40 mg omeprazole, 30 mg dextromethorphan, and 2 mg midazolam. Blood samples were collected pre-dose on day 1 and up to 120 hours post-dose for PK analyses of the substrates in the 5+1 cocktail. On days 6 to 15, volunteers received 700 mg rivoceranib once daily for 10 consecutive days with a single dose of the 5+1 cocktail administered on day 11. Blood samples were collected pre-dose on day 11 and up to 120 hours post cocktail dosing (day 16) for PK analyses. Each dosing was under fasted conditions. There was a washout period of 5 days between day 1 dosing and the first rivoceranib dose on day 6; the 2 cocktail dosings were spaced by 10 days.

Series [3] relates to CYP3A4/5. The series is described as follows: Example 1 pharmacokinetic interaction study, rivoceranib 200 mg + Cooperstown 5+1 cocktail: midazolam probe. The conditions noted are these: for AUC(0-t), Geometric Mean Ratio, (Cooperstown Cocktail + Rivoceranib)/Cooperstown Cocktail Alone / AUC(0-∞), Geometric Mean Ratio, (Cooperstown Cocktail + Rivoceranib)/Cooperstown Cocktail Alone / Cmax, Geometric Mean Ratio, (Cooperstown Cocktail + Rivoceranib)/Cooperstown Cocktail Alone: rivoceranib 200 mg daily, D11 vs D1.

The target of series [4] is T1, CYP2D6 (Homo sapiens, UniProt P10635). Briefly: Example 2 phase 1 drug-drug interaction study, rivoceranib 700 mg QD + 5+1 cocktail: dextromethorphan probe. To be noted: for AUC(0-t) / AUC(0-inf) / Cmax: human, in vivo, healthy volunteers; for AUC(0-t), Geometrical mean Ratio, % (90% CI) / AUC(0-∞), Geometrical mean Ratio, % (90% CI) / Cmax, Geometrical mean Ratio, % (90% CI): rivoceranib 700 mg QD, 100*LSM Rivoceranib Plus 5+1 Cocktail/LSM 5+1 Cocktail Alone. As for the experimental part: as §1, §2, §3

For series [5], the target named is T1, CYP2D6. Briefly: Example 1 pharmacokinetic interaction study, rivoceranib 200 mg + Cooperstown 5+1 cocktail: dextromethorphan probe. To be noted: for AUC(0-t), Geometric Mean Ratio, (Cooperstown Cocktail + Rivoceranib)/Cooperstown Cocktail Alone / AUC(0-∞), Geometric Mean Ratio, (Cooperstown Cocktail + Rivoceranib)/Cooperstown Cocktail Alone / Cmax, Geometric Mean Ratio, (Cooperstown Cocktail + Rivoceranib)/Cooperstown Cocktail Alone: rivoceranib 200 mg daily, D11 vs D1.

The mark [6] stands for this setting: Geometric LSM, Rivoceranib plus 5 + 1 cocktail, healthy volunteers, 5+1 cocktail day 11 + rivoceranib 700 mg QD days 6-15.
Where [7] appears, read: Mean (CV %), Rivoceranib plus 5 + 1 cocktail, healthy volunteers, 5+1 cocktail day 11 + rivoceranib 700 mg QD days 6-15.
[8] abbreviates: po, 2 mg, Geometric LSM, 5 + 1 cocktail alone, healthy volunteers, single oral 5+1 cocktail dose day 1, fasted.
The mark [9] stands for this setting: po, 2 mg, Mean (CV %), 5 + 1 cocktail alone, healthy volunteers, single oral 5+1 cocktail dose day 1, fasted.
The mark [10] stands for this setting: rivoceranib 200 mg once daily, oral substrate.
Setting [11] is: Geometric LSM, Rivoceranib plus 5 + 1 cocktail, 5+1 cocktail day 11 + rivoceranib 700 mg QD days 6-15.
The mark [12] stands for this setting: Mean (CV %), Rivoceranib plus 5 + 1 cocktail, 5+1 cocktail day 11 + rivoceranib 700 mg QD days 6-15.
Setting [13] is: po, Geometric LSM, 5 + 1 cocktail alone, single oral 5+1 cocktail dose day 1, fasted.
[14] abbreviates: po, Mean (CV %), 5 + 1 cocktail alone, single oral 5+1 cocktail dose day 1, fasted.
Setting [15] is: healthy volunteers, 5+1 cocktail day 11 + rivoceranib 700 mg QD days 6-15.
The mark [16] stands for this setting: healthy volunteers, single oral 5+1 cocktail dose day 1, fasted.

Sequence of CYP2C19 (P33261 whole entry): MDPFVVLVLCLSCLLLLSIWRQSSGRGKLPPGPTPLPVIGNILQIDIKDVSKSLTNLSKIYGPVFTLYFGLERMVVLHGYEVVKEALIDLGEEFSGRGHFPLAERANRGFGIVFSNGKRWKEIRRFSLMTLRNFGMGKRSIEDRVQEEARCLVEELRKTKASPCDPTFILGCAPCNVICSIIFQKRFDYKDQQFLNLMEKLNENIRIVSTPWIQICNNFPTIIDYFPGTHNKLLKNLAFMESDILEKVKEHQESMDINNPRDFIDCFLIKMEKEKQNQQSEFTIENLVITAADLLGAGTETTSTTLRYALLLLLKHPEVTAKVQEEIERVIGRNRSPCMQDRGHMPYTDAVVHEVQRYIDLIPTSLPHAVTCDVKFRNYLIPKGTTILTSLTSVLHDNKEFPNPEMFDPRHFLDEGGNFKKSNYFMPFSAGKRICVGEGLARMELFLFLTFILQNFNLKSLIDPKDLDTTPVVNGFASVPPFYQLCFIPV
T1 sequence (P10635 whole entry): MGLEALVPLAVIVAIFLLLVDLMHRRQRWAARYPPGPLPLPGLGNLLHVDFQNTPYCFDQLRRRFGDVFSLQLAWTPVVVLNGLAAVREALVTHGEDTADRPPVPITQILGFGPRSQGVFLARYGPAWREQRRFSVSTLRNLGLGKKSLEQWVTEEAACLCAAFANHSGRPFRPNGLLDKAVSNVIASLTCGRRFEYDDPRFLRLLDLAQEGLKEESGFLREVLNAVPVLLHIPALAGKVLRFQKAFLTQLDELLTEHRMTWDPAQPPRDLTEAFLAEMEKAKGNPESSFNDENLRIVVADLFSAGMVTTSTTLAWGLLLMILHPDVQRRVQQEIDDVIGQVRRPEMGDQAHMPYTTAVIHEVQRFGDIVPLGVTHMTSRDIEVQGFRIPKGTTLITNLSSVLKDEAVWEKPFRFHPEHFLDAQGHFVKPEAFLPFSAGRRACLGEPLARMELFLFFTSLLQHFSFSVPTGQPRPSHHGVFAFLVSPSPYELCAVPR

For the compound `COc1ccc2nc([S+]([O-])Cc3ncc(CO)c(OC)c3C)[nH]c2c1` (stereo not drawn) [5-hydroxyomeprazole], in series [1], the “AUC(0-t), Geometric LS Mean, Cooperstown Cocktail Alone” value worked out at 6.6476; the “AUC(0-∞), Geometric LS Mean, Cooperstown Cocktail Alone” value came to 6.6678; the “Cmax, Geometric LS Mean, Cooperstown Cocktail Alone” value came to 5.3867.
One may read the AUC(0-t) as the area under the concentration-time curve up to a stated or last time point. In general, AUC(0-inf) refers to total exposure, with the tail of the curve extrapolated. As a reminder, the Cmax is the maximum level reached in the sampled fluid or tissue. As to `Cc1ncc2n1-c1ccc(Cl)cc1C(c1ccccc1F)=NC2` [midazolam], in series [2] (setting [6]), the AUC(0-t) was 75.2 ng·h/mL, the AUC(0-inf) was found to be 82.1 ng·h/mL and the peak concentration (Cmax) came out at 25.7 ng/mL. Moreover, in series [2] (setting [7]), the exposure AUC(0-t) came to 75.5 ng·h/mL, the AUC(0-inf) was determined as 82.5 ng·h/mL and the peak concentration (Cmax) was found to be 25.7 ng/mL. Also, in series [2] (setting [8]), the AUC(0-t) worked out at 28.1 ng·h/mL, the area under the curve AUC(0-inf) is 29.7 ng·h/mL and the peak concentration (Cmax) was 10.8 ng/mL. Further, in series [2] (setting [9]), the exposure AUC(0-t) came out at 28.1 ng·h/mL, the AUC(0-inf) was 29.7 ng·h/mL and the maximum concentration (Cmax) is 10.8 ng/mL. Moreover, the “increase in exposure following coadministration with rivoceranib” value in series [2] (rivoceranib 700 mg) was 2.4- to 2.8 fold. Besides, in series [2], the “AUC(0-t), Geometrical mean Ratio, % (90% CI)” value stood at 267.59%; the “AUC(0-∞), Geometrical mean Ratio, % (90% CI)” value amounted to 276.27%; the “Cmax, Geometrical mean Ratio, % (90% CI)” value worked out at 237.88%. In series [3], the “AUC(0-t), Geometric Mean Ratio, (Cooperstown Cocktail + Rivoceranib)/Cooperstown Cocktail Alone” value (“AUC(0-t), Geometric Mean Ratio” for short) is reported as 1.5573; the “AUC(0-∞), Geometric Mean Ratio, (Cooperstown Cocktail + Rivoceranib)/Cooperstown Cocktail Alone” value (shortened to “AUC(0-∞), Geometric Mean Ratio”) amounted to 1.4451; the “Cmax, Geometric Mean Ratio, (Cooperstown Cocktail + Rivoceranib)/Cooperstown Cocktail Alone” value (“Cmax, Geometric Mean Ratio” below) was 1.1509. In series [3] (setting [10]), the “increase in AUC0-∞ following coadministration with rivoceranib” value was 65% and the “increase in Cmax following coadministration with rivoceranib” value is 16%.
Take `COc1ccc2c(c1)[C@]13CCCC[C@@H]1[C@H](C2)N(C)CC3` [dextromethorphan]: in series [4] (setting [11]), the AUC(0-t) is 27.1 ng·h/mL, the AUC(0-inf) was found to be 36.2 ng·h/mL and the Cmax was 2.78 ng/mL. In addition, in series [4] (setting [12]), the AUC(0-t) turned out to be 23.7 ng·h/mL, the AUC(0-inf) is 33.2 ng·h/mL and the maximum concentration (Cmax) was determined as 2.53 ng/mL. For the same compound, in series [4] (setting [13]), the AUC(0-t) is 10.4 ng·h/mL, the AUC(0-inf) worked out at 13.3 ng·h/mL and the Cmax worked out at 1.4 ng/mL. Moreover, in series [4] (setting [14]), the AUC(0-t) came to 10.4 ng·h/mL, the area under the curve AUC(0-inf) was determined as 14 ng·h/mL and the Cmax stood at 1.4 ng/mL. In addition, the “increase in exposure with rivoceranib” value in series [4] (rivoceranib 700 mg) is recorded as 2- to 2.7 fold. Further, in series [4], the “AUC(0-t), Geometrical mean Ratio, % (90% CI)” value stood at 259.87%; the “AUC(0-∞), Geometrical mean Ratio, % (90% CI)” value is reported as 272.50%; the “Cmax, Geometrical mean Ratio, % (90% CI)” value was 198.80%. Besides, in series [5], the “AUC(0-t), Geometric Mean Ratio” value stood at 2.5448; the “AUC(0-∞), Geometric Mean Ratio” value came out at 2.6650; the “Cmax, Geometric Mean Ratio” value came out at 1.9039. Besides, in series [5] (setting [10]), the “increase in AUC0-∞ on coadministration of rivoceranib relative to Cooperstown 5+1 cocktail only” value was 144% and the “increase in Cmax on coadministration of rivoceranib relative to Cooperstown 5+1 cocktail only” value is on record as 70%.
With `OCc1ncc2n1-c1ccc(Cl)cc1C(c1ccccc1F)=NC2` [1-hydroxymidazolam], in series [2] (setting [15]), the “AUC(0-t), Geometric LSM, Rivoceranib plus 5 + 1 cocktail” value was 13.89; the “AUC(0-t), Mean (CV %), Rivoceranib plus 5 + 1 cocktail” value came to 14.37; the “AUC(0-∞), Geometric LSM, Rivoceranib plus 5 + 1 cocktail” value is given as 15.16; the “AUC(0-∞), Mean (CV %), Rivoceranib plus 5 + 1 cocktail” value is reported as 15.67. Also, in series [2] (setting [15]), the “Cmax, Geometric LSM, Rivoceranib plus 5 + 1 cocktail” value is 4.639 ng/mL and the “Cmax, Mean (CV %), Rivoceranib plus 5 + 1 cocktail” value turned out to be 4.797 ng/mL. Besides, in series [2] (setting [16]), the “AUC(0-t), Geometric LSM, 5 + 1 cocktail alone” value is on record as 9.643; the “AUC(0-t), Mean (CV %), 5 + 1 cocktail alone” value was determined as 9.643; the “AUC(0-∞), Geometric LSM, 5 + 1 cocktail alone” value is listed as 10.21; the “AUC(0-∞), Mean (CV %), 5 + 1 cocktail alone” value was found to be 10.18. In addition, in series [2] (setting [16]), the “Cmax, Geometric LSM, 5 + 1 cocktail alone” value stood at 4.115 ng/mL and the “Cmax, Mean (CV %), 5 + 1 cocktail alone” value turned out to be 4.115 ng/mL. In series [2], the “AUC(0-t), Geometrical mean Ratio, % (90% CI)” value was found to be 144.05%; the “AUC(0-∞), Geometrical mean Ratio, % (90% CI)” value is recorded as 148.48%; the “Cmax, Geometrical mean Ratio, % (90% CI)” value stood at 112.73%. For the same compound, in series [3], the “AUC(0-t), Geometric Mean Ratio” value was 1.2627; the “AUC(0-∞), Geometric Mean Ratio” value is given as 1.1355; the “Cmax, Geometric Mean Ratio” value turned out to be 0.8913.
As to `CN1CC[C@@]23CCCC[C@@H]2[C@@H]1Cc1ccc(O)cc13` [dextrorphan], in series [4] (setting [11]), the AUC(0-t) turned out to be 33.7 ng·h/mL, the total exposure AUC(0-inf) stood at 37.1 ng·h/mL and the peak concentration (Cmax) was 4.74 ng/mL. In addition, in series [4] (setting [12]), the AUC(0-t) is 34.5 ng·h/mL, the AUC(0-inf) was found to be 37.8 ng·h/mL and the Cmax is 4.88 ng/mL. Moreover, in series [4] (setting [13]), the area under the curve AUC(0-t) turned out to be 26.1 ng·h/mL, the AUC(0-inf) was 27.9 ng·h/mL and the Cmax was 4.66 ng/mL. Also, in series [4] (setting [14]), the AUC(0-t) is 26.1 ng·h/mL, the total exposure AUC(0-inf) was 27.9 ng·h/mL and the Cmax was found to be 4.66 ng/mL. In series [4], the “AUC(0-t), Geometrical mean Ratio, % (90% CI)” value was 129.07%; the “AUC(0-∞), Geometrical mean Ratio, % (90% CI)” value is 133.22%; the “Cmax, Geometrical mean Ratio, % (90% CI)” value is given as 101.70%. In addition, in series [5], the “AUC(0-t), Geometric Mean Ratio” value is 1.1509; the “AUC(0-∞), Geometric Mean Ratio” value came to 1.1104; the “Cmax, Geometric Mean Ratio” value came to 0.8950.
